From patent US8377935B2, “Substituted aminopropenyl piperidine or morpholine derivatives as novel inhibitors of histone deacetylase” (Janssen Pharmaceutica N.V., priority 2005, dated 2013) come the findings set out here.

Structures are written as SMILES.

One series concerns p21 promoter. Description: p21 induction capacity, cellular method (ZsGreen reporter in A2780 clones). It is filed as cell-based, human. To be noted: A2780 clones with p21 1300 bp promoter-ZsGreen reporter, 24 hours treatment, percentage of control. The protocol:
A first method tests the capacity of compounds to induce p21 as the consequence of HDAC inhibition at the cellular level. […] The reporter gene is a fluorescent protein and the expression of the reporter gene is measured as the amount of fluorescent light emitted (see example C.6.a.). The second method is an in vivo method wherein mice are used for screening the pharmaceutical activity of a compound. The above described stably transformed tumour cells can be administered to mice in an amount sufficient to effect production of a tumour. After the tumour cells had sufficient time to form a tumour, a potentially active compound can be administered to the animals and the effect of said compound On the tumour cells is evaluated by measuring the expression of the reporter gene. […]
The A2780 selected clones were expanded and seeded at 10000 cells per well into 96-well plates. […] The p21 promoter activation leading to ZsGreen production and thus fluorescence, was monitored by the Ascent Fluoroskan (Thermo Labsystems, Brussels, Belgium).
For each experiment, controls (containing no drug) and a blank incubation (containing no cells or drugs) were run in parallel. […] For each sample, the value for p21 induction was expressed as the percentage of the value for p21 present in the control. […]

Series [1] can be described thus: Metabolic stability with rat hepatocytes cell culture. It is filed as in vitro ADME. To be noted: rat hepatocyte cell cultures, 5 μM. From the text: Metabolism of drugs means that a lipid-soluble xenobiotic or endobiotic compound is enzymatically transformed into (a) polar, water-soluble, and excretable metabolite(s). The major organ for drug metabolism is the liver. […] However, some metabolites may have enhanced activity or toxic effects. Thus drug metabolism may include both “detoxication” and “toxication” processes. One of the major enzyme systems that determine the organism's capability of dealing with drugs and chemicals is represented by the cytochrome P450 monooxygenases, which are NADPH dependent enzymes. Metabolic stability of compounds can be determined in vitro with the use of subcellular human tissue (see example C.5.a.). Here metabolic stability of the compounds is expressed as % of drug metabolised after 15 minutes incubation of these compounds with microsomes. Quantitation of the compounds was determined by LC-MS analysis. Metabolic stability of compounds can also be determined by calculating the half live of compounds in rat hepatocyte cells (see example C.5.b.). […]
Samples were prepared for LC-MS by addition of two volumes of DMSO. […] Of the resulting supernatant 50 μl was analysed by LC-MS. […]
Total injection volume of samples was 50 μL. […] The mass spectrometer was operated in positive ion mode in SIM adjusted to the mass of […] with a scan width of 1 Da for quantification purposes. […]

Consider `O=C(NO)c1cnc(N2CCC(CNC(/C=C/c3ccccc3)CO)CC2)nc1` (centres unmarked) [Compound 1], for which the p21 induction entry in the series with p21 promoter is listed as “significant induction (Percentage induction higher than 130% was defined as significant induction)”. Also, the in vitro half-live in series [1] is reported as 103 min.
